We go through three compounds from publication PMC6017121, “New Thiazoline-Tetralin Derivatives and Biological Activity Evaluation” (Molecules : A Journal of Synthetic Chemistry and Natural …, 2018).

For orientation: IC50 means the concentration needed to halve the response being measured. Low readings indicate higher potency, high ones lower potency.

Series [1] concerns A549 cells. Kind of series: Annexin V-FITC/propidium iodide flow cytometry on A549. It counts as cell-based, human. The note with it: A549 cell line, IC50 concentration; for % Early Apoptotic / % Late Apoptotic / % Necrotic / % Viable: 24 h. Here is the method:
(§1) Evaluation of apoptosis was carried out through the Annexin V-FITC Apoptosis Detection Kit from BD, Pharmingen, according to the manufacturer’s instruction. […] Then cells were rinsed with cold water twice and resuspended in Annexin V-FITC binding buffer at a concentration of 1 × 10^6 cells/mL. […] of Annexin V-FITC was used to stain the cells. After 15 min of incubation at 25 °C, the cell suspension was centrifugated for 5 min and cells were resuspended in Annexin V-FITC binding buffer. Propidium iodide ([…]) was added and the tubes were situated on ice and away from light. The fluorescence was measured using a flow cytometer. The results were analyzed by using FCSExpress software and represented as percentage of normal and apoptotic cells at various stages. […] The four areas in the diagrams stand for necrotic cells (Q1, positive for PI and negative for annexin/FITC, left square on the top), live cells (Q3, negative for annexin and PI, left square at the bottom), late apoptotic or necrotic cells (Q2, positive for annexin and PI, right square on the top) and apoptotic cells (Q4, negative for PI and positive for annexin, right square at the bottom), respectively. The experiment was repeated three times.

The test system of series [2] is A549 cells. Description: DNA synthesis inhibition (BrdU) on A549.
Protocol: The 5-bromo-2′-deoxy-uridine (BrdU) cell proliferation assay [48] was used to detect the proliferation of A549 and C6 cells. […] At the end of each day, the cells were labelled with 10 mL BrdU solution for 2 h and then fixed. Anti-BrdU-POD (100 mL) was added and incubated for 90 min. Finally, microtiter plates were washed with phosphate buffered saline (PBS) three times and the cells were incubated with substrate solution until the color was sufficient for photometric detection. […] The growth percentage was evaluated spectrophotometrically versus untreated controls with used cell viability of growth assay. Results for each spectrophotometrical measure were noticed as percent of growth inhibition. All experiments were done in triplicates.
Mean percent absorbance of untreated control cells were assumed 0%. […] Data points represent means for three independent wells ± SD. p < 0.05.
Series [3] has as its system MCF-7 cells. Description: Annexin V-FITC/propidium iodide flow cytometry on MCF-7. The conditions noted are these: MCF-7 cell line, IC50 concentration. It counts as cell-based, human. Here is the method: as §1
For orientation: A flow cytometer gives signals particle by particle.

Series [4] has as its system human lung carcinoma cell line (A549). Description: MTT cytotoxicity assay on A549. The note with it: for IC50: MTT, 24 h incubation; for SI A549 (selectivity index): NIH/3T3 versus A549. In kind it is cell-based. Here is the method: (§2) This is a colorimetric assay that measures the reduction of 3-(4,5-dimethylthiazol-2-yl)-2,4,diphenyltetrazolium bromide (MTT) by mitochondria. All final compounds were tested against human breast adenocarcinoma cell line (MCF-7), human lung carcinoma cell line (A549) and mouse embryooblast cell line (NIH/3T3) to determine their cytotoxic profile. Cancer cells were cultured in RPMI medium (Hyclone, Thermo Scientific, Waltham, MA, USA) at 37 °C in a humidified atmosphere of 95% air and 5% CO2. The studied cells were situated at 2 × 10^4 cells into each well of 96-well microtiter tissue culture plates (Nunc, Denmark) and incubated for 24 h. After that, test compounds were dissolved in DMSO and added to culture wells at varying concentrations (85–1000 µM). After a 24 h incubating period, […] MTT solution (5 mg/mL MTT powder in PBS) was added to each well and the cells were incubated for 4 h at 37 °C. The purple formazan crystals produced were dissolved in DMSO and the absorbance was read by ELISA reader (OD570 nm). The percent values of cell proliferations were calculated relative to controls, whose cell proliferations were accepted as 100% [47].
(Tetrazolium assays rely on reduction of a dye to a coloured formazan, in cell work by metabolically active cells.)

The subject of series [5] is human breast adenocarcinoma cell line (MCF-7). Description: MTT cytotoxicity assay on MCF-7. It counts as cell-based. The note with it: for IC50: MTT, 24 h incubation; for SI MCF-7 (selectivity index): NIH/3T3 versus MCF-7. Here is the method: as §2
In series [6] the test system is mouse embryoblast cell line (NIH/3T3). Description: MTT cytotoxicity assay on NIH/3T3 (healthy cells). It counts as cell-based. The conditions noted are these: NIH3T3, 24 h incubation. On the procedure: as §2
The target of series [7] is butyrylcholinesterase (BuChE) (Homo sapiens, UniProt P06276). Description: biochemical. The conditions noted are these: 80 µg/mL (~160 µM). On the procedure:
(§3) In order to determine the acetyl- and butyrylcholinesterase enzyme inhibitions, experiments were carried out by making some changes in the method developed by Ellman. Samples were prepared by dissolving in the appropriate solvent. Adding 20 μL enzyme solution (AChE or BuChE, 1 U/mL) and 10 μL sample solution to 2.4 mL buffer solution and it was incubated for 15 min at 37 °C. After incubation, 50 μL DTNB and 75 mM ATCI solution or 20 μL of 25 mM BTCI solution were added and allowed the mixture to incubate at room temperature for 30 min. For the control group, only 10 μL of solvent was added instead of the sample solution provided all protocols are the same. […] Experiments were run in triplicate. The inhibition fractions of AChE […] BuChE enzymes were calculated using the following equation:I(%) = 100 − ([…]) × 100

The target of series [8] is acetylcholinesterase (AChE) (Homo sapiens, UniProt P22303). Kind of series: biochemical. The conditions noted are these: 80 µg/mL (~160 µM). Here is the method:
as §3

For series [9], the system named is MCF-7 cells. Description: DNA synthesis inhibition (BrdU) on MCF-7.

Sequence of acetylcholinesterase (AChE) (P22303 32-614, species assumed): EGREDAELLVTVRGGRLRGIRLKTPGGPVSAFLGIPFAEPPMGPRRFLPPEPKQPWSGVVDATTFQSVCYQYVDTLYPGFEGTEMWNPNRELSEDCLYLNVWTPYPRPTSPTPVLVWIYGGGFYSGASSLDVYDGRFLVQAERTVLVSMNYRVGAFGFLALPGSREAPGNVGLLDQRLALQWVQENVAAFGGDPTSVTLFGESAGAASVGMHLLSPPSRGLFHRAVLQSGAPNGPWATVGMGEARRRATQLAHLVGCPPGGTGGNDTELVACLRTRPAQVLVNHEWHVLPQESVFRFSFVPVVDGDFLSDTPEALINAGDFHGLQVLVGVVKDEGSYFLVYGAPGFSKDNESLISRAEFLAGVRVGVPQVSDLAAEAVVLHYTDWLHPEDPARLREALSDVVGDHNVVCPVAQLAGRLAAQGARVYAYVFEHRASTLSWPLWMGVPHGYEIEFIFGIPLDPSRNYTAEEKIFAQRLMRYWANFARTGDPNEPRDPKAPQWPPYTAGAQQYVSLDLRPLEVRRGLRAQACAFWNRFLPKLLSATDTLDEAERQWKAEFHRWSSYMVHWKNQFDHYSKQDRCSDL
Sequence of butyrylcholinesterase (BuChE) (P06276 29-602): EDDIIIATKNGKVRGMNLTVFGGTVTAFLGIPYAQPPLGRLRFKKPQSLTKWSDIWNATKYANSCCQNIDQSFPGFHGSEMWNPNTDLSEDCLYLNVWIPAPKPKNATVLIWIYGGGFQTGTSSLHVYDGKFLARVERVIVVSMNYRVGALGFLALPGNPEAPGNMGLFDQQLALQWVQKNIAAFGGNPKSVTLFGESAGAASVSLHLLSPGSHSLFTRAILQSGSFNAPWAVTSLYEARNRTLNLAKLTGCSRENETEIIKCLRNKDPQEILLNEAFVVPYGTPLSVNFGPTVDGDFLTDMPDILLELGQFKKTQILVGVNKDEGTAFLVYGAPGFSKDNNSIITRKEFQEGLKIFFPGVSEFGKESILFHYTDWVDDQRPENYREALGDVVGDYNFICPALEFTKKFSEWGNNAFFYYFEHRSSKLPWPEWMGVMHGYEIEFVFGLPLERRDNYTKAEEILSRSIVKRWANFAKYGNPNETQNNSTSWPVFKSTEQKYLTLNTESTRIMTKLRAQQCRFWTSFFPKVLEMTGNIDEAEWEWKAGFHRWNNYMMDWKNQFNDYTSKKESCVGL

As for `N.N.[Cl][Pt][Cl]` [Cisplatin, cisplatin, reference compound], in the series with A549 cells [1], the “apoptosis (early + late apoptotic cell percentage) A549” value worked out at 40.2%, the “% Early Apoptotic” value worked out at 14.9%, the “% Late Apoptotic” value worked out at 25.3% and the “% Necrotic” value worked out at 6.7%. Further, the “DNA synthesis inhibition on A549 at IC50/2” value in the series on A549 cells [2] (IC50/2 concentration (4h 24.3 μM; cisplatin 54.2 μM)) was 32.86%. The “DNA synthesis inhibition on A549 at IC50” value in the series with A549 cells [2] (IC50 concentration (4h 48.6 μM; cisplatin 108.3 μM)) was 50.33%. The “apoptosis (early + late apoptotic cell percentage) MCF-7” value in the series on MCF-7 cells [3] was determined as 29.9%. In the series on MCF-7 cells [3] (24 h), the “% Early Apoptotic” value is reported as 2.8%, the “% Late Apoptotic” value came out at 27.1% and the “% Necrotic” value is on record as 28.1%. For the same compound, inhibition in [4] was half-maximal at 108 ± 11.8 µM (IC50). Besides, the half-inhibitory concentration (IC50) in [5] worked out at 100 ± 3.3 µM.
Take `COc1ccc(-c2csc(=NNC(=O)COc3ccc4c(c3)CCCC4)n2C2CCCCC2)cc1` [Compound 4b, N′-[3-Cyclohexyl-4-(4-methoxyphenyl)thiazole-2(3H)-ylidene]-2-[(5,6,7,8-tetrahydronaphthalen-2-yl)oxy]acetohydrazide]: the “apoptosis (early + late apoptotic cell percentage) A549” value in the series with A549 cells [1] is reported as 73.6%. The “% Early Apoptotic” value with A549 cells [1] was 6.6%; in the series with MCF-7 cells [3] (24 h), 0.7%. Further, the “% Late Apoptotic” value in the series on A549 cells [1] is given as 67.0%; in the series with MCF-7 cells [3] (24 h) it was 29.1%. Besides, the “% Necrotic” value with A549 cells [1] is 15.6%; in the series on MCF-7 cells [3] (24 h), 63.8%. Besides, the “% Viable” value with A549 cells [1] came to 10.9%; in the series on MCF-7 cells [3] (24 h) it was 6.3%. Besides, the IC50 was 55.7 ± 1.2 µM in series [6]; 138 ± 7.2 µM in [4] (Homo sapiens, A549); 69.2 ± 5.8 µM in series [5] (Homo sapiens, MCF7). Besides, the “apoptosis (early + late apoptotic cell percentage) MCF-7” value in the series on MCF-7 cells [3] was found to be 29.8%. Moreover, the “SI A549 (selectivity index)” value in series [4] is recorded as 0.4. Besides, the inhibition at 160 µM in series [7] stood at 15.9 ± 1.72%; in series [8], 11.1 ± 1.48%. Besides, the inhibition at 69.2 µM in the series with MCF-7 cells [9] (Homo sapiens, MCF7, 96 h, read-out: DNA synthesis inhibition on MCF-7 at IC50) was found to be 48.5%. The “DNA synthesis inhibition on MCF-7 at IC50/2” value in the series with MCF-7 cells [9] (IC50/2 concentration (4b 34.6 μM; 4d 36.9 μM, b49: 35.9 μM)) is 31.39%. Besides, in series [5], the “SI MCF-7 (selectivity index)” value is listed as 0.8.
For `O=C(COc1ccc2c(c1)CCCC2)N/N=c1\scc(-c2ccc(F)cc2)n1-c1ccccc1` [Compound 4h, N′-[3-Phenyl-4-(4-florophenyl)thiazole-2(3H)-ylidene]-2-[(5,6,7,8-tetrahydronaphthalen-2-yl)oxy]acetohydrazide], in the series on A549 cells [1], the “apoptosis (early + late apoptotic cell percentage) A549” value is given as “over 50%”, the “% Early Apoptotic” value amounted to 23.7%, the “% Late Apoptotic” value stood at 26.4% and the “% Necrotic” value is given as 4.0%. In addition, the “% Viable” value in the series with A549 cells [1] turned out to be 45.9%. The compound further gave a 50% inhibitory concentration (IC50) in [6] of 247 ± 12.2 µM. The inhibition at 48.6 µM in the series on A549 cells [2] (Homo sapiens, A549, 4 h, read-out: DNA synthesis inhibition on A549 at IC50, IC50 concentration (4h 48.6 μM; cisplatin 108.3 μM)) was 50.8%. Moreover, 48.6 ± 6 µM corresponded to half-maximal inhibition in series [4] (Homo sapiens, A549) (IC50). For the same compound, the “SI A549 (selectivity index)” value in series [4] came to 5.1. This compound also yielded an inhibition at 80 µg/mL in series [7] of less than 0%. This compound gave an inhibition at 160 µM in series [8] of 49.9 ± 1.44%. Also, in series [5] (Homo sapiens, MCF7), 243 ± 14.9 µM corresponded to half-maximal inhibition (IC50). The “SI MCF-7 (selectivity index)” value in series [5] is reported as 1.0.
